Measured values published in patent US20070254312A1, “Protein Kinase Inhibitors and Methods for Identiying Same” (priority 2004, published 2007).
Like-named read-outs stand apart in the source and are kept apart here. Starred links: 1 amine or outer side, 2 acyl side, 3 side chain; linkers in the order of their positions; H or OH if unused. Non-standard residues stand in square brackets, D forms with d. Residues, ends and D or L forms follow the SMILES beside them. *: point of attachment. Benzoyl(4-(pyrrol-1-yl)) = O=C(c1ccc(-n2cccc2)cc1)*; Cysteamide = C(CS[*:3])N[*:1]; Dap = NC[C@H](N)C(=O)O

Columns and labels:
PKCα [1] = target: T1, PKCα (Homo sapiens, UniProt P17252); assay: Protein Kinase Cα radioactive assay, peptide substrate Ac-Ser-Phe-Arg-Arg-Arg-NH2 (Example 1); assay type: biochemical; design: purchased Pan Vera; conditions: peptide substrate; read-out: PKCα inhibitory potency IC50
Procedure: Protein Kinase C Assay (general). The peptides […] (for PKC α, β and γ) and acetyl-[…] (for PKC ε and ζ) were used as substrates. […] Total reaction volume was 50 μL. […] Following an additional 5 min incubation at ambient temperature, 75 μL from each reaction well was transferred into each well of a Unifilter (P81 cellulose phosphate paper) assay plate and washed four times with 0.1% phosphoric acid in water. […] IC50 values were calculated using GraFit (Erithacus Software Limited) and Ki values were calculated using Enzyme Kinetics, SigmaPlot (SPSS Inc.) […] An analogous protocol was employed for peptide 4 versus variable [[…]]. […] An analogous protocol was employed for peptide 4 versus variable [ATP]. Protein Kinase Cα Assay (Ki determination for peptide 6 versus variable […] substrate). […] The reaction was initiated as described above. […] Following an additional 5 min incubation at ambient temperature, 75 μL from each reaction well was transferred into each well of a Unifilter (P81 cellulose phosphate paper) assay plate and washed four times with 0.1% phosphoric acid in water. […] IC50 values were calculated using GraFit (Erithacus Software Limited) and Ki values were calculated using Enzyme Kinetics, SigmaPlot (SPSS Inc.)

PKC β1 = PKC β1 (Homo sapiens, UniProt P05771); conditions: cited from earlier work
PKCδ = PKCδ (Homo sapiens, UniProt Q05655); design: purchased Panvera; conditions: literature values; relative to most potently inhibited isoform (=1); cited from earlier work
PKCη = PKCη (Homo sapiens, UniProt P24723); design: purchased Panvera; conditions: cited from earlier work
PKCγ = PKCγ (Homo sapiens, UniProt P05129); design: purchased Panvera; conditions: cited from earlier work
PKCα [2] = target: T1, PKCα; conditions: cited from earlier work
PKCζ = target: T2, PKCζ (Homo sapiens, UniProt Q05513); design: purchased Panvera; conditions: cited from earlier work
T2 sequence (Q05513 1-592): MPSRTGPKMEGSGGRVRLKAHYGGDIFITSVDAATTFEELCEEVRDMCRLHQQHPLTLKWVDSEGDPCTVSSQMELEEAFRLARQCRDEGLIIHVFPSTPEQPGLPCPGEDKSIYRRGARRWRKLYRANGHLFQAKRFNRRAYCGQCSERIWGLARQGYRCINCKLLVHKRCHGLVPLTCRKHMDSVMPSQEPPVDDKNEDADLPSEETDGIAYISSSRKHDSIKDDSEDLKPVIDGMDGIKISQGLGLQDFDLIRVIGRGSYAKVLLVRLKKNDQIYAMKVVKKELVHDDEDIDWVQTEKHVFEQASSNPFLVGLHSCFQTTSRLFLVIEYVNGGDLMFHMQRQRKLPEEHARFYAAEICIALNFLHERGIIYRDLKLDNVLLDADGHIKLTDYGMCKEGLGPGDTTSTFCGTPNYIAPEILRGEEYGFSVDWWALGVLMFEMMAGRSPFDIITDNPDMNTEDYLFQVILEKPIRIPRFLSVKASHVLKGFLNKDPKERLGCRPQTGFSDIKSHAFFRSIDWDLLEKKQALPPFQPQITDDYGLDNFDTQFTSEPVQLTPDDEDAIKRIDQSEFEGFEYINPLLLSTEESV

PKCε = target: T3, PKCε (Homo sapiens, UniProt Q02156); design: purchased Panvera; conditions: cited from earlier work
T3 sequence (Q02156 1-737): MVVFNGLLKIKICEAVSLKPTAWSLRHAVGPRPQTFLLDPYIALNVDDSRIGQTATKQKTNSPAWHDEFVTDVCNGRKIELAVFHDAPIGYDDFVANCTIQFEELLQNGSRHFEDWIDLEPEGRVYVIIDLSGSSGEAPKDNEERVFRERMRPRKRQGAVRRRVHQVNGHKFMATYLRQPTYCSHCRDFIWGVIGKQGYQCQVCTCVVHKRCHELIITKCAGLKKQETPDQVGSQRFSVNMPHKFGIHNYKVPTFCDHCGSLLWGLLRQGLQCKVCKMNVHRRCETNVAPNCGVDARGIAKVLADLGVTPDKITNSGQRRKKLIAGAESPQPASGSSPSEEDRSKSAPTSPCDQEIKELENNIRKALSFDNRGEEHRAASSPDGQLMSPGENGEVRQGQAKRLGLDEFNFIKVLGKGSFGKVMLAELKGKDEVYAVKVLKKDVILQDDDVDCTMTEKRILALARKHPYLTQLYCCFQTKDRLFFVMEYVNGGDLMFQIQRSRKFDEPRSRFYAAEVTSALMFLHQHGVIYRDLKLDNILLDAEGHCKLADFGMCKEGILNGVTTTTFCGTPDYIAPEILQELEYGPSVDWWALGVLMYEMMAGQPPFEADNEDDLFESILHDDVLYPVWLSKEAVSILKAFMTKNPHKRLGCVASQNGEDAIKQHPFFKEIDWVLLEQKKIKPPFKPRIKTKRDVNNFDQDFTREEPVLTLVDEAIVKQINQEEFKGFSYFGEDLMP

Chain of PKC β1 (P05771 whole entry, canonical isoform): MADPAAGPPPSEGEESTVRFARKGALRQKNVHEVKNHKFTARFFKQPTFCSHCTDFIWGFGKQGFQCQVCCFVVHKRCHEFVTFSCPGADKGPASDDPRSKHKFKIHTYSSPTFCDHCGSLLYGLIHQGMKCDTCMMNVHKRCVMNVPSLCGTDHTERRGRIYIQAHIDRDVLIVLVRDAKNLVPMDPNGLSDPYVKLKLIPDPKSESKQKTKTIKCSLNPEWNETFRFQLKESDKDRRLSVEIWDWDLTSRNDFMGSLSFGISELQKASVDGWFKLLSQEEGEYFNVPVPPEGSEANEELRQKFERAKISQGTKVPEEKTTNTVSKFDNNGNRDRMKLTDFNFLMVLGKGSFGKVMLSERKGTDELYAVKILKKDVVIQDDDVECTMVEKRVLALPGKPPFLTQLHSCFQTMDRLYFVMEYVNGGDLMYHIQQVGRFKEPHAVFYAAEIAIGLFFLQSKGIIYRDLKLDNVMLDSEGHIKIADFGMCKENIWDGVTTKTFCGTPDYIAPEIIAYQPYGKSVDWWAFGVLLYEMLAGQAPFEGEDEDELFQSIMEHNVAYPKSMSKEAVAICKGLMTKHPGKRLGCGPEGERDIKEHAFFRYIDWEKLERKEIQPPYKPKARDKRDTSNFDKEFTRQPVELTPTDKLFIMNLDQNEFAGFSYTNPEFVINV
Chain of PKCη (P24723 whole entry): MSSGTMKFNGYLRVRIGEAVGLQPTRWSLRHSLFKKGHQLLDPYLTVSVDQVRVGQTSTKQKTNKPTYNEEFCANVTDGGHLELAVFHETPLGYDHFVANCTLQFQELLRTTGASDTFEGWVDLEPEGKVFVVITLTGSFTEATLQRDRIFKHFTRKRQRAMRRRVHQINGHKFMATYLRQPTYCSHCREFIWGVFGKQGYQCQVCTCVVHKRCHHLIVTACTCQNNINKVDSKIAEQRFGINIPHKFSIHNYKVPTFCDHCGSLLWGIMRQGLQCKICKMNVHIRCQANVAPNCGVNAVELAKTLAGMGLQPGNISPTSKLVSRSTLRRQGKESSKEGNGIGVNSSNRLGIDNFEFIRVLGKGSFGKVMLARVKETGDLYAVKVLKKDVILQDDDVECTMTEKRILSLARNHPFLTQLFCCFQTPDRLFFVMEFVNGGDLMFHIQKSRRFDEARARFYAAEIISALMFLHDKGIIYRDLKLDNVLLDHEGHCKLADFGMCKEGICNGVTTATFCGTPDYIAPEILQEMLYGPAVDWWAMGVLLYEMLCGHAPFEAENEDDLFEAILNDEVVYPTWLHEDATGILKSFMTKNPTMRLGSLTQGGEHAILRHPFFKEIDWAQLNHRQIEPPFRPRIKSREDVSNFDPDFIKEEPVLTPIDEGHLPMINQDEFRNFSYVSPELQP
Chain of PKCδ (Q05655 whole entry, canonical isoform): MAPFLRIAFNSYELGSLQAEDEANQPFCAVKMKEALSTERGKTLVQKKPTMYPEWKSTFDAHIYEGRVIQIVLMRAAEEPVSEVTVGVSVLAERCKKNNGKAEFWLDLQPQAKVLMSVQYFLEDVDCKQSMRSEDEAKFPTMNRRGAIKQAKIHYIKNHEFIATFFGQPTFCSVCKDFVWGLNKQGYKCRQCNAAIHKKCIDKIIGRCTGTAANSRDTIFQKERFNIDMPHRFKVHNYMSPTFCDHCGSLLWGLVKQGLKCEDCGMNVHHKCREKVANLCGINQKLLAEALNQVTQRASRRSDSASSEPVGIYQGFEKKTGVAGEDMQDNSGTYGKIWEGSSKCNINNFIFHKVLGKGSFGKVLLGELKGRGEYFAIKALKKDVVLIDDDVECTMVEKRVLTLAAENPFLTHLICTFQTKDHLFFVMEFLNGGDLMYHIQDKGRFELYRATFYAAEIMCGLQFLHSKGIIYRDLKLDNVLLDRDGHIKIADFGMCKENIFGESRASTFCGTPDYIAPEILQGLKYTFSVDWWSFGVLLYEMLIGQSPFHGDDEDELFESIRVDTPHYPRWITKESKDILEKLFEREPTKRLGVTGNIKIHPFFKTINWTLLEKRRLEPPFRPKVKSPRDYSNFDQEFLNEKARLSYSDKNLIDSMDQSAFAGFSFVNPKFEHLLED

Row | SMILES | IC50 (PKCα [1]) | Fold selectivity (IC50), PKC β1 (PKC β1) | Fold selectivity (IC50), PKC β1 (PKC β1; listed as rottlerin) | Fold selectivity (IC50), PKC δ (PKCδ) | Fold selectivity (IC50), PKC η (PKCη) | Fold selectivity (IC50), PKC γ (PKCγ) | Fold selectivity (IC50), PKC α (PKCα [2]) | Fold selectivity (IC50), PKC ζ (PKCζ) | Fold selectivity (IC50), PKC ε (PKCε)
1 | CC(=O)N[C@@H](C)C(=O)N[C@@H](CCCNC(=N)N)C(=O)N[C@@H](CCCNC(=N)N)C(=O)NCC(=O)N[C@@H](CNC(=O)c1ccc(-n2cccc2)cc1)C(=O)N[C@@H](CC(C)C)C(=O)N[C@@H](CCCNC(=N)N)C(=O)N[C@@H](CCC(N)=O)C(=O)N[C@@H](C)C(=O)NCCS [Compound 2] (Ac-ARRG[Dap](Benzoyl(4-(pyrrol-1-yl)))LRQA-Cysteamide) | 5.7 ± 0.4 µM | – | – | – | – | – | – | – | –
2 | CC(=O)c1c(O)c(C)c(O)c(Cc2c(O)c3c(c(C(=O)/C=C/c4ccccc4)c2O)OC(C)(C)C=C3)c1O [Rottlerin, rottlerin] | – | 14 fold | 10 fold | 1 fold | 27 fold | 13 fold | 10 fold | 33 fold | 33 fold
